Test [1] deals with cultured human mast cells (CHMC). Description: CHMC low cell density IgE activation: tryptase assay. Conditions: anti-IgE. Format: cell-based. Summed up:
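Cells pelleted, taken up in warm MT, plated at 1000-1500/well, held 1 hr 37° C. Anti-IgE added, 30 min 37° C. Plates spun; supernatant mixed with tryptase substrate, 30 min RT.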

The test system is the same in test [2]. Nature of the test: CHMC low cell density ionomycin activation: tryptase assay. Format: cell-based.
The test system of test [3] is bone marrow derived mast cells (BMMC). Nature of the test: BMMC high cell density IgE activation: hexosaminidase. The class given is cell-based, mouse. Conditions: anti-IgE, second part of TABLE 1, read-out: BMMC anti-IgE hexos. IC50. As to the method: (§1) After sensitizing, cells are counted, pelleted (1000 rpm, 5-10 minutes), and resuspended at 1-3×10^6 cells/ml in MT buffer. Add 100 ul of cell suspension to each well and 100 ul of compound dilutions. The final vehicle concentration is 0.5% DMSO. Incubate at 37° C. (5% CO2) for 1 hour. After 1 hour of compound treatment, stimulate cells with 6× stimulus (60 ng/ml DNP-BSA). Mix wells with the cells and allow plates to incubate at 37° C. (5% CO2) for one hour. After 1 hour incubation, pellet cells (10 minutes, 1000 RPM) and collect 200 ul per well of the supernatant, being careful not to disturb pellet, and transfer to a clean tube or 96-well plate. Place the supernatant plate on ice. During the 4-5 hour step (see next) perform the hexosiminidase assay. Resuspend cell pellet in 240 ul WEI-conditioned media containing 0.5% DMSO and corresponding concentration of compound. Incubate BMMC cells for 4-5 hours at 37° C. (5% CO2). After incubation, pellet cells (1000 RPM, 10 minutes) and collect 225 ul per well and place in −80° C. until ready to perform ELISAS. ELISAS are performed on appropriately diluted samples (determined empirically for each donor cell population so that the sample measurement falls within the standard curve) following the supplier's instructions.
Hexosaminidase assay: In a solid black 96-well assay plate, add 50 uL hexosaminidase substrate (4-methylumbelliferyl-N-acetyl-(3-D-glucosaminide; 2 mM) to each well. Add 50 uL of BMMC cell supernatant (see above) to the hexoseaminidase substrate, place at 37° C. for 30 minutes and read the plate at 5, 10, 15, and 30 minutes on a spectrophotometer.

For test [4], the system named is IgE-induced degranulation of tissue mast cells. Nature of the test: Mouse model of passive cutaneous anaphylaxis (PCA). Conditions: for % Inhibition (PCA): PO, 67% PEG/33% citrate buffer, pretreatment 15 min; for PCA response, positive controls (in words): mouse, in vivo. The class given is in vivo. The method, then: This model provides a direct measure of IgE-induced degranulation of tissue mast cells. In this model, IgE primed animals are exposed to an allergen challenge, and the change in permeability of dermal vasculature that results from histamine release from mast cells is measured by change in the amount of dye leakage into surrounding tissue. Inhibition of mediator release by compounds that modulate mast cell degranulation is easily measured by extracting the dye from the tissue.
In the PCA assay mice are passively sensitized by intradermal injection with anti-dinitrophenol (DNP) IgE antibodies (Day −1). At predetermined times animals are treated with the test agent (Day 0). The modulatory effect of the agent on cutaneous mast cell degranulation is measured following intravenous injection of DNP conjugated to human serum albumin (HSA-DNP), together with Evans blue dye. The resulting cross-linking of the IgE receptor and subsequent mast cell degranulation-induced increase in vascular permeability is determined by measuring the amount of dye extravasation into the tissue. Dye is extracted from the tissue by formamide, and the absorbance of this extract is read at 620 nm.

Test [5] has as its system bone marrow derived mast cells (BMMC). Nature of the test: BMMC high cell density IgE activation: LTC4. The class given is cell-based, mouse. Conditions: anti-IgE, second part of TABLE 1. As to the method: (§2) Inhibition of degranulation was measured at both low and high cell density by quantifying the release of the granule specific factors tryptase, histamine and hexosaminidase. Inhibition of release and/or synthesis of lipid mediators was assessed by measuring the release of leukotriene LTC4 and inhibition of release and/or synthesis of cytokines was monitored by quantifying TNF-α, IL-6 and IL-13. Tryptase and hexosaminidase were quantified using fluorogenic substrates as described in their respective examples. […] The protocols of the various assays are provided below.
as §1

Test [6] shares this test system. Description: BMMC high cell density IgE activation: TNFalpha. Conditions: anti-IgE, second part of TABLE 1, read-out: BMMC anti-IgE TNF-alpha IC50. The class given is cell-based, mouse. As to the method:
as §2, §1

The test system is the same in test [7]. Nature of the test: BMMC high cell density IgE activation: histamine. The class given is cell-based, mouse. Conditions: anti-IgE, second part of TABLE 1. The method, then:
as §2, §1

For test [8] the test system is unchanged. Nature of the test: BMMC high cell density IgE activation: IL-6. Format: cell-based, mouse. Conditions: anti-IgE, second part of TABLE 1. As to the method: as §2, §1

pIC50: −log10 of the molar value. Where only a bound is given, the exact number is not on record here.

Broadly, the pIC50 is −log10 of the IC50, conventionally taken in molar units. `CCOC(=O)COc1ccc(Nc2ncc(F)c(Nc3ccc4c(c3)OCCO4)n2)cc1` [R925747, N2-(4-Ethoxycarbonylmethyleneoxyphenyl)-N4-(3,4-ethylenedioxyphenyl)-5-fluoro-2,4-pyrimidinediamine]: the negative logarithm of the IC50 (pIC50) in test [1] was 5.99; in test [2], 5.51; in test [3], 5.51.

For `Fc1cnc(Nc2ccc3c(c2)OCCO3)nc1Nc1ccc2c(c1)OCCO2` [R926109, N2,N4-Bis(3,4-ethylenedioxyphenyl)-5-fluoro-2,4-pyrimidinediamine], the “% Inhibition (PCA)” value was determined as 22% in test [4] (50 mg/kg), 32% in test [4] (100 mg/kg) and 48% in test [4] (200 mg/kg). Further, the “FcεR-mediated vascular leakage with increasing doses (in words)” value in test [4] (solution (67% PEG/33% citrate buffer) or aqueous suspension (1.5% Avicel)) is given as “dose-dependent inhibition”.

Consider `Oc1cccc(Nc2nc(Nc3ccc4cn[nH]c4c3)ncc2F)c1` [R935191, 5-Fluoro-N4-(3-hydroxyphenyl)-N2-(indazolin-6-yl)-2,4-pyrimidinediamine], for which the pIC50 in test [2] was below 5.00; in test [3], 7.17; in test [5], 6.67; in test [6] it was 7.15.

On to `Cn1ncc2cc(Nc3ncc(F)c(Nc4cccc(O)c4)n3)ccc21` [R935194, 5-Fluoro-N4-(3-hydroxyphenyl)-N2-(1-methy-indazoline-5-yl)-2,4-pyrimidinediamine], for which the pIC50 in test [2] was below 5.00; in test [7], 7.27; in test [5], 6.31; in test [8] it was 7.47.

On to `CC(C)c1cccc(Nc2nc(Nc3cccc(OCC(=O)NCC(O)CO)c3)ncc2F)c1` (stereo not shown) [R940290, N2-[3-(N-2,3-Dihydroxypropylamino)carbonylmethyleneoxyphenyl]-5-fluoro-N4-(3-isopropylphenyl)-2,4-pyrimidinediamine], for which the pIC50 in test [2] is below 5.00; in test [7], 6.26; in test [5], 6.23; in test [8], 7.00.

On to `COC(=O)COc1cccc(Nc2ncc(F)c(Nc3ccc4c(c3)C(OC)CCO4)n2)c1` (stereo not shown) [R950295, N4-(4-Methoxy-3,4-dihydro-2H-1-benzopyran-6-yl)-5-fluoro-N2-[3-methoxycarbonylmethyleneoxyphenyl]-2,4-pyrimidinediamine], for which the pIC50 was 5.69 in test [1] and 5.06 in test [2].

For `CCOC1CCOc2ccc(Nc3nc(Nc4cccc(OCC(=O)NC)c4)ncc3F)cc21` (stereo not shown) [R950296, N4-(4-Ethoxy-3,4-dihydro-2H-1-benzopyran-6-yl)-5-fluoro-N2-[3-(N-methylamino)carbonylmethyleneoxyphenyl]-2,4-pyrimidinediamine], the pIC50 in test [1] is 6.31; in test [2] it was below 5.00.

Regarding `CNC(=O)COc1cccc(Nc2ncc(F)c(Nc3ccc(OCCC(=O)OC)cc3)n2)c1` [R950346, N4-(4-Methoxycarbonylethyleneoxyphenyl)-5-fluoro-N2-[3-(N-methylamino)carbonylmethyleneoxyphenyl]-2,4-pyrimidinediamine], the negative logarithm of the IC50 (pIC50) in test [1] was 6.46; in test [2] it was below 5.00.

For `CNC(=O)COc1cccc(Nc2ncc(F)c(Nc3ccc4c(c3)C(O)CCO4)n2)c1` (stereo not shown) [R950349, N4-(4-Hydroxy-3,4-dihydro-2H-1-benzopyran-6-yl)-5-fluoro-N2-[3-(N-methylamino)carbonylmethyleneoxyphenyl]-2,4-pyrimidinediamine], the negative logarithm of the IC50 (pIC50) in test [1] is 7.11; in test [2], below 5.00.

For `CNC(=O)COc1cccc(Nc2ncc(F)c(Nc3cccc(C(=O)c4ccccc4)c3)n2)c1` [R950372, N4-(3-Phenylcarbonylphenyl)-5-fluoro-N2-[3-(N-methylamino)carbonylmethyleneoxyphenyl]-2,4-pyrimidinediamine], the results for the negative logarithm of the IC50 (pIC50) in test [1] and in test [2] were 5.87 and below 5.00, respectively.

`CNC(=O)COc1cccc(Nc2ncc(F)c(Nc3cccc(C(=NO)c4ccccc4)c3)n2)c1` [R950374, N4-(3-Phenylcarbonyloximephenyl)-5-fluoro-N2-[3-(N-methylamino)carbonylmethyleneoxyphenyl]-2,4-pyrimidinediamine]: the negative logarithm of the IC50 (pIC50) is 6.22 in test [1] and below 5.00 in test [2].

Consider `CC(=NO)c1cccc(Nc2ncc(F)c(Nc3cccc(C(C)=NO)c3)n2)c1` [R950379, N2,N4-Bis(3-methylcarbonyloximephenyl)-5-fluoro-2,4-pyrimidinediamine], for which the values for the pIC50 in test [1] and in test [2] were 6.26 and below 5.00, respectively.

Regarding `ON=C(c1ccccc1)c1cccc(Nc2ncc(F)c(Nc3cccc(C(=NO)c4ccccc4)c3)n2)c1` [R950380, N2,N4-Bis(3-phenylcarbonyloximephenyl)-5-fluoro-2,4-pyrimidinediamine], the pIC50 was 5.52 in test [1] and below 5.00 in test [2].

With `CNC(=O)COc1cccc(Nc2ncc(F)c(Nc3ccc(OC(F)(F)F)c(C(=O)OC)c3)n2)c1` [R950392, N4-(3-Methoxycarbonyl-4-trifluoromethoxyphenyl)-5-fluoro-N2-[3-(N-methylamino)carbonylmethyleneoxyphenyl]-2,4-pyrimidinediamine], the pIC50 is 6.02 in test [1] and below 5.00 in test [2].

Take `CNC(=O)COc1cccc(Nc2ncc(F)c(Nc3ccc4c(c3)C(NC(C)=O)CCO4)n2)c1` (stereo not shown) [R950393, N4-(4-Acetylamino-3,4-dihydro-2H-1-benzopyran-6-yl)-5-fluoro-N2-[3-(N-methylamino)carbonylmethyleneoxyphenyl]-2,4-pyrimidinediamine]: the pIC50 in test [1] was 6.39; in test [2], below 5.00.

With `CN1CCC(=C2c3ccccc3C=Cc3ccccc32)CC1` [cyproheptadine, reference compound], in test [4] (8 mg/kg, i.p., 30 minutes pretreatment time, n=23 experiments), the “inhibition of the PCA response” value is listed as 61%. Further, the “PCA response, positive controls (in words)” value in test [4] is “inhibit the PCA response”.

Take `CN(C)CCOC(c1ccccc1)c1ccccc1` [diphenhydramine, reference compound]: the “PCA response, positive controls (in words)” value in test [4] is reported as “inhibit the PCA response”.

“N2,N4-Bis(methoxycarbonylbenzyl)-5-cyano-2,4-pyrimidinediamine [R925819]”: the negative-log IC50 (pIC50) in test [1] and in test [2] was below 5.00 each time.

As to “N2-(3,4-Ethylenedioxyphenyl)-5-ethoxycarbonyl-4-[N-(L)-phenyl glycinyl ethyl ester)-2-pyrimidineamine [R926536]”, the pIC50 in test [1] and in test [2] was below 5.00 each time.

For the molecule “N2-(3-Ethylcarboxy-4H-imidazo[5,1-c]-1,4-benzoxazin-6-yl)-5-fluoro-N4-(3-hydroxyphenyl)pyrimidinediamine [R909267]”, the results for the pIC50 in test [1] and in test [2] were 6.23 and below 5.00, respectively.

As to “N2-(Carboxymethyleneaminophenyl)-5-fluoro-N4-[3-(2-hydroxyethyloxy)phenyl]-2,4-pyrimidinediamine [R950230]”, the pIC50 in test [1] was 5.10; in test [2], below 5.00.

“N2-[3-(N-2-Aminoethylamino)carbonylmethylene aminophenyl]-5-fluoro-N4-[3-(2-hydroxyethylenoxy)phenyl]-2,4-pyrimidinediamine [R950232]”: the pIC50 is 5.00 in test [1] and below 5.00 in test [2].
